In patent publication US7319089B2, “Maurocalcine, analogues thereof and their therapeutical uses” (priority 2000, dated 2008):
Values joined by “and” are separate entries in the source; they are usually repeats but may differ in a detail not shown here. Equal entries are not always repeated. “Also recorded” adds a separate entry of the source. Positions of bridges follow the written chain, without caps; N, C: chain ends. Residues, ends and D or L forms follow the SMILES beside them.

Assays:
[1] = molecular target: T1, type 1 ryanodine receptor (RyR1) (Homo sapiens, UniProt P21817); format: biochemical; design: sMCa-modified channels blocked by ruthenium red: dose or concentration left out as unconfirmed; settings: for reversibility of the induced subconductance states on perfusion of the cis chamber: channel modified by sMCa and ryanodine, trace 5
T1 construct: from tissue; host or cells: sarcoplasmic reticulum (SR) vesicles
T1 sequence (P21817 whole entry, species assumed, the tested form may be a part): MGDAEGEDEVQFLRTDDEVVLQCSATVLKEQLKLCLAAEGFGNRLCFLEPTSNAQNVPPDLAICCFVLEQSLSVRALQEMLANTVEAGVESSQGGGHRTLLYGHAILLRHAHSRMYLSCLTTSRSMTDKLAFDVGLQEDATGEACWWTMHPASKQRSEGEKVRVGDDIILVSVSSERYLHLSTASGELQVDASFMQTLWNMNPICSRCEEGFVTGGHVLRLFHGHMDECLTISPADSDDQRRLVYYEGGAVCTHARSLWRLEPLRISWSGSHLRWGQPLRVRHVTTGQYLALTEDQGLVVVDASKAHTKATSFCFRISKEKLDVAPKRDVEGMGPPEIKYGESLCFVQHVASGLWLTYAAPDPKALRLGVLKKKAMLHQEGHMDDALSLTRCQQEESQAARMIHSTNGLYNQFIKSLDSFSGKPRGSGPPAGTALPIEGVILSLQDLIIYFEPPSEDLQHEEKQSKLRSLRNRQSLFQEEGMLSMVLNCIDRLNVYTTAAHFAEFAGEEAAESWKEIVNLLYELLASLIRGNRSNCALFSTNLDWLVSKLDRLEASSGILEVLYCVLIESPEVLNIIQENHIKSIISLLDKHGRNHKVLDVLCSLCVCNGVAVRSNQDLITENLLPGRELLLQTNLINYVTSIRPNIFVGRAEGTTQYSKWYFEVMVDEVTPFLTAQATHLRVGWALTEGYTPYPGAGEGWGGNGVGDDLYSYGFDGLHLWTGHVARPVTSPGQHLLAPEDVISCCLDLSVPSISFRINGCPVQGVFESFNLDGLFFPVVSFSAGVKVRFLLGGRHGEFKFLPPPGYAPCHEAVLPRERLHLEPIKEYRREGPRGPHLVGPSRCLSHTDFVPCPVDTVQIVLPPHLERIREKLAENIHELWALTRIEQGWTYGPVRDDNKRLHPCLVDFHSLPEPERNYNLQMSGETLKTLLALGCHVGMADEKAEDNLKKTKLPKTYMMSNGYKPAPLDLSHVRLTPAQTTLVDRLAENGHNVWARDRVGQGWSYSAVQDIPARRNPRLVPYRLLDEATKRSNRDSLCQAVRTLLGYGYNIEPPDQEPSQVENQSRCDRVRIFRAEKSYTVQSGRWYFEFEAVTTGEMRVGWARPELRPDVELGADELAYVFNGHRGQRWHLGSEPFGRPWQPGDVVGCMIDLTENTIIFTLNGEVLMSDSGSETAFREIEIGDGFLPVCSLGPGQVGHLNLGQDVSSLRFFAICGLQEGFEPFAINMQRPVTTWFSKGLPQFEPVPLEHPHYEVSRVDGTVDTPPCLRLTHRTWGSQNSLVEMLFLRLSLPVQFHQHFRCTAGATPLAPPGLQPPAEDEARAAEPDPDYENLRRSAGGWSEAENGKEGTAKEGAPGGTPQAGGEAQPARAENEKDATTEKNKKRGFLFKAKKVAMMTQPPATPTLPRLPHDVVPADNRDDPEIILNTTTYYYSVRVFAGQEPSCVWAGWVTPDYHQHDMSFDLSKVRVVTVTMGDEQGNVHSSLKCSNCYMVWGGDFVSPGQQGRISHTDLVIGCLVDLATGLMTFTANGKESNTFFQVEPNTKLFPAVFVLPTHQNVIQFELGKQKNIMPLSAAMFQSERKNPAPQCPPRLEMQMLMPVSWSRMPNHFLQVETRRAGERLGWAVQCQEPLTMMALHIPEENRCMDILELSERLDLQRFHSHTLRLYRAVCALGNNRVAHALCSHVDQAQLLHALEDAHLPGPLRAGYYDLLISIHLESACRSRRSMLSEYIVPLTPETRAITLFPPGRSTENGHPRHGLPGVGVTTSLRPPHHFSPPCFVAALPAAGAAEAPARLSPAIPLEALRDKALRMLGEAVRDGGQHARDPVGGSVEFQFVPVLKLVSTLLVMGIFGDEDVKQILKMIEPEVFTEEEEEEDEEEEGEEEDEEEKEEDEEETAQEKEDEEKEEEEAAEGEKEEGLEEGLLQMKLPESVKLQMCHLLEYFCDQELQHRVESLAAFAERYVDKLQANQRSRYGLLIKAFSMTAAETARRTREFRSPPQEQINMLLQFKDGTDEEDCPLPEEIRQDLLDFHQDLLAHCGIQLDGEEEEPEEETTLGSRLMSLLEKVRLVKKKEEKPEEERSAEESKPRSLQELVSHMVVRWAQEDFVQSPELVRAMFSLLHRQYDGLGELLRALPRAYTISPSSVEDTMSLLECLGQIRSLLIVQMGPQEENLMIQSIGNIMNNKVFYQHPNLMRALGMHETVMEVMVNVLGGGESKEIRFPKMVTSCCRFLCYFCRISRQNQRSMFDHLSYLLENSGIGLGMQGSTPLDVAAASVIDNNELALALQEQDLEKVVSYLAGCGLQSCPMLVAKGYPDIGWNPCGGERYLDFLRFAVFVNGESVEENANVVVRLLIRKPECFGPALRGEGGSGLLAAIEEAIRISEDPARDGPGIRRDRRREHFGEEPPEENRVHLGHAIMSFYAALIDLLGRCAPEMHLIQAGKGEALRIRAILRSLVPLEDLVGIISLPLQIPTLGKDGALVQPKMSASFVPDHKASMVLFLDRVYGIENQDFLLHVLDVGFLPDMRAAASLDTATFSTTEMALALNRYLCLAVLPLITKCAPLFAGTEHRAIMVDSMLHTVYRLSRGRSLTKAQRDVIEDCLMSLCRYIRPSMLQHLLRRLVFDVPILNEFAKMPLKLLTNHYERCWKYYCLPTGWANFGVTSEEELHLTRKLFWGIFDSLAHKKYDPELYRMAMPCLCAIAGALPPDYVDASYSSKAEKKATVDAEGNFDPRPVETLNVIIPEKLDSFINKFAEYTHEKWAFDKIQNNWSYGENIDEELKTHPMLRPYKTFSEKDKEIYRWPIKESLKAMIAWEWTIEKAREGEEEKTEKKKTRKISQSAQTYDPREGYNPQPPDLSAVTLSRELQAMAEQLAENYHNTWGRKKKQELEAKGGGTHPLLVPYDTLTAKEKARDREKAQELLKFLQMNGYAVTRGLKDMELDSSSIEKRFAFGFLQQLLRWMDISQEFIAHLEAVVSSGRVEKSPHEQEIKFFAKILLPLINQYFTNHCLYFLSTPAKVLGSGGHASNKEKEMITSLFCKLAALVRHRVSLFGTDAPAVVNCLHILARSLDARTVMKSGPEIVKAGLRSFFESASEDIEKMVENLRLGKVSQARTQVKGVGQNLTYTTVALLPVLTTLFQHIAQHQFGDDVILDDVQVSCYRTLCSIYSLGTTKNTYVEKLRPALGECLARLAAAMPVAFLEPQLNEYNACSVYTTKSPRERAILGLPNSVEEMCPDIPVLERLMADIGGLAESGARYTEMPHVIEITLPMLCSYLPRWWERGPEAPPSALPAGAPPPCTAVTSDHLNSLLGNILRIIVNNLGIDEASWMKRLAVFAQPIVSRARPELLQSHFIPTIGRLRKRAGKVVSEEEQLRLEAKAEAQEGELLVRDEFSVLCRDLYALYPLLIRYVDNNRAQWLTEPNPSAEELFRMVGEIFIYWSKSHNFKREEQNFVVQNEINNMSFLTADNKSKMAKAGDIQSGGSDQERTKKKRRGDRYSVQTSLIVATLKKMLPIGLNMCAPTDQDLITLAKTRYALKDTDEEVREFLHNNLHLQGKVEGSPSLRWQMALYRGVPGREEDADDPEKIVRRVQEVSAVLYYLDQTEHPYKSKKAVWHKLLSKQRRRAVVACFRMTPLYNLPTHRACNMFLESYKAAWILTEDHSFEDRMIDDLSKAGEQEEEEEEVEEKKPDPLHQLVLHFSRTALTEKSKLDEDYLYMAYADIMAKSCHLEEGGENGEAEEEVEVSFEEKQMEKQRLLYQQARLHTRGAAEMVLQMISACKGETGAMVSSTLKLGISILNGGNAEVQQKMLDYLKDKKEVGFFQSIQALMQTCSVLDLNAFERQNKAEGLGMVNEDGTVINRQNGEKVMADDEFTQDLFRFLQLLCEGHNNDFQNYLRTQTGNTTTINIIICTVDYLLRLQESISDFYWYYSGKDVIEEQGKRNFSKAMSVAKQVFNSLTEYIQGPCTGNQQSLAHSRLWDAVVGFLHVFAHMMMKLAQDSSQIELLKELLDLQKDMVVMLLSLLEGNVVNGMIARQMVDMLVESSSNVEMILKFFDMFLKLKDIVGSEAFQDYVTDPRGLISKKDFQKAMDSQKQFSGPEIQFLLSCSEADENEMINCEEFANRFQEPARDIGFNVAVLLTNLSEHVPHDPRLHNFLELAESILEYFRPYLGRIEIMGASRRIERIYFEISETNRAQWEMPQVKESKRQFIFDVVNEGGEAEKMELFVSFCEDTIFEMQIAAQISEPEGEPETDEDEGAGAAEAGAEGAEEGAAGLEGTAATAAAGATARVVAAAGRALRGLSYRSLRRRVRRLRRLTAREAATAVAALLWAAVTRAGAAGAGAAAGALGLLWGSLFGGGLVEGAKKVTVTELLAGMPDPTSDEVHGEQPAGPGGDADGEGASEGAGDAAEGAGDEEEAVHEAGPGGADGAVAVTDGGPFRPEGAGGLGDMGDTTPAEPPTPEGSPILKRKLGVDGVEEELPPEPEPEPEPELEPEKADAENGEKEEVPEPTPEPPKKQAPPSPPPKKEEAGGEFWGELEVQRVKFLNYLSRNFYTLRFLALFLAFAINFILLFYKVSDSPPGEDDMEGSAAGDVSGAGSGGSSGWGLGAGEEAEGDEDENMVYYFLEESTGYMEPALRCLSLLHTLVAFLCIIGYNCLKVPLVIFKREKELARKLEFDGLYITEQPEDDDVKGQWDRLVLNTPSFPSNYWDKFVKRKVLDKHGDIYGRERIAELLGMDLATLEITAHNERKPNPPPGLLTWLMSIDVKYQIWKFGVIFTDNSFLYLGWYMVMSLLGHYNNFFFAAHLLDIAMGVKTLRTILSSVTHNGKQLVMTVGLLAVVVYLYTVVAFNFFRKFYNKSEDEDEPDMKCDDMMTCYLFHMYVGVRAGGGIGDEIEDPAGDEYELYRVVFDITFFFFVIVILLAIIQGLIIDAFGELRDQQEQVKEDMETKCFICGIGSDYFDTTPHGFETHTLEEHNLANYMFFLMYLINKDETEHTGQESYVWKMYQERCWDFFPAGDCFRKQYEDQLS
Experimental: Single-channel recording: Cs^+ current through single RyR1 channels incorporated into planar lipid bilayers (BLM) was measured in an asymmetric CsCl (10:1 cis:trans) solution. The BLM was formed from a mixture of phosphatidylethanolamine and phosphatidylcholine (5:2, w/w) at 30-50 mg/ml in decane, across a […] aperture in a 1.0 ml polystyrene cup. SR vesicles were added to the cis side of chamber at a final concentration of 0.1-10 mg/ml. The cis solution contained 500 mM CsCl, ˜7 mM CaCl2, 20 mM HEPES, pH 7.4, and the trans solution contained 50 mM CsCl, 7 mM free Ca^2+, 20 mM HEPES, pH 7.4. The monovalent cation Cs^+ was used as permeant ion instead of divalent cations (such as Ca^2+) owing to its better permeability through RyR1. After a single fusion event, sarcoplasmic reticulum (SR) vesicles in cis chamber were quickly removed by perfusion with 9× volume of is solution. Single-channel current was measured under voltage clamp using a Dagan 3900 amplifier (Dagan Instruments, Minneapolis, Minn.). Holding potentials were with respect to the trans (ground) chamber, and positive current was defined as current flowing from cis to trans. Current signals were captured at 10 kHz and filtered at 1 kHz using a four pole Bessel filter. Data was digitized with a Digidata 1200 interface (Axon Instruments, Burlingame, Calif.) and stored on computer for subsequent analysis. Unless otherwise stated, test chemicals were sequentially added to the cis solution after an initial period of recording control channel behaviour. Single channel activity was analyzed with pCLAMP 7.0 (Axon Instruments). Current levels were analyzed by mean-variance analysis and peaks in the all-points amplitude histogram were fitted with Gaussian functions. The all-points amplitude histograms were constructed from selected segments-of data 20-150 sec in length to quantify the incidence of full and subconductance states.
To test this hypothesis, we performed electrophysiological experiments on single RyR1 channels incorporated into planar lipid bilayers.

mice = experiment: Lethality after intracerebroventricular injection in mice
[2] = molecular target: T1, type 1 ryanodine receptor (RyR1); settings: comparison with sMCa; cited from earlier work
[3] = sMCa and ryanodine (1 μM) both present

N.N.N.N.N.N.N.N.N.N.N.N.N.N.[Cl-].[Cl-].[Cl-].[Cl-].[Cl-].[Cl-].[O-2].[O-2].[Ru+3].[Ru+3].[Ru+4] [ruthenium red, reference compound]
block of the ryanodine/sMCa modified channel [1]: completely blocked
sMCa-modified channels blocked by ruthenium red ([1]; ruthenium red): Five out of six channels

CC[C@H](C)[C@@H]1NC(=O)[C@H](CC(N)=O)NC(=O)[C@H]([C@@H](C)O)NC(=O)CNC(=O)[C@H](CCCNC(=N)N)NC(=O)[C@H](CCCNC(=N)N)NC(=O)[C@H](CCCCN)NC(=O)[C@@H]2CSSC[C@@H]3NC(=O)[C@H](CC(C)C)NC(=O)[C@H](CCCCN)NC(=O)[C@H](CC(C)C)NC(=O)[C@H](Cc4c[nH]cn4)NC(=O)[C@@H]4CCCN4C(=O)[C@H](CC(C)C)NC(=O)[C@@H](NC(=O)[C@H](CC(=O)O)NC(=O)CN)CSSC[C@H](NC(=O)[C@H](CSSC[C@@H](C(=O)N[C@@H](CCCNC(=N)N)C(=O)O)NC(=O)[C@H](CCCNC(=N)N)NC(=O)[C@H](CCCCN)NC(=O)[C@H](CCC(=O)O)NC1=O)NC(=O)[C@H](CC(=O)O)NC(=O)[C@H](CCCCN)NC(=O)[C@H](CC(N)=O)NC(=O)[C@H](CCC(=O)O)NC(=O)[C@H](CCCCN)NC3=O)C(=O)N[C@@H](CO)C(=O)N[C@@H](CCCCN)C(=O)N[C@@H](CCCCN)C(=O)N2 [sMCa, maurocalcine] (H-GDCLPHLKLCKENKDCCSKKCKRRGTNIEKRCR-OH; disulfide 3-17, 10-21, 16-32)
reversibility of the induced subconductance states on perfusion of the cis chamber [1]: reversed the sMCa-induced quarter states
effect on RyR1 channel gating, toxin applied on the cis (cytoplasmic) side ([1]; nanomolar concentration (5 nM to 1 μM), cis chamber): dramatically modified the channel gating behavior; also recorded: potently and reversibly modifies channel gating behaviour; also recorded: potently activates RyR1 channels
minor subconductance induced, fraction of the full conductance level ([1]; sMCa alone, cis, to a smaller extent): one-quarter
predominant subconductance induced, fraction of the characteristic full conductance ([1]; sMCa alone, cis, traces 1-3): one-half
half subconductance, % of the characteristic control conductance level [1, 3]: ~50.5% and 51%
quarter subconductance, % of the characteristic control conductance level [1, 3]: ~29.3% and 29%
effect on RyR1, toxin applied on the trans (luminal) side ([1]; trans side): No effect
LD50 (mice): 20 μg per mouse

Imperatoxin A (GDCLPHLKRCKADNDCCGKKCKRRGTNAEKRCR; UniProt P59868 1-33, looked up) [IpTx A]
conductance state of RyR1 favoured [2]: ⅓

ryanodine [reference compound]
reversibility of the induced subconductance states on perfusion of the cis chamber [1]: ryanodine-mediated half-states persisted
sMCa-modified channels subsequently modified by ryanodine ([1]; ryanodine 1 μM): Four out of five channels
